Source: US7164021B2, “Opiate analogs selective for the δ-opioid receptor” (The Curators of The University of Missouri, priority 2002, dated 2007)

How the values were obtained:
κ receptor [1] = molecular target: κ receptor (Homo sapiens, UniProt P41145); experiment: Competitive analysis vs 3H-Bremazocine, κ receptor; type: binding; conditions: reference compound 3H-Bremazocine
mu receptor = mu receptor (Homo sapiens, UniProt P35372); experiment: Competitive analysis vs 3H-Bremazocine, mu receptor; type: binding
delta receptor = delta receptor (Homo sapiens, UniProt P41143); experiment: Competitive analysis vs 3H-Bremazocine, delta receptor; type: binding
δ receptor = δ receptor (Mus musculus, UniProt P32300); conditions: experimental value of the reference opioid; cited from earlier work
μ receptor = μ receptor (Rattus norvegicus, UniProt P33535); conditions: experimental value of the reference opioid; cited from earlier work
κ receptor [2] = molecular target: κ receptor (Mus musculus, UniProt P33534); conditions: experimental value of the reference opioid; cited from earlier work

Structure (SMILES)	% Inhibition κ (κ receptor [1]) [%]	% Inhibition μ (mu receptor) [%]	Ki (mu receptor; competitive analysis, 1.64 nM 3H-Bremazocine, dose response curve FIG. 7B, read-out: Representative Ki μ) [nM]	Ki (delta receptor; competitive analysis, 1.64 nM 3H-Bremazocine, dose response curve FIG. 7A, read-out: Representative Ki δ (delta binding affinity)) [nM]	% Inhibition δ (delta receptor; competitive analysis, reference compound 3H-Bremazocine) [%]	delta/mu selectivity (delta receptor; ratio delta vs mu binding)	experimental affinity δ receptor (value in parenthesis) (δ receptor)	experimental affinity μ receptor (value in parenthesis) (μ receptor)	experimental affinity κ receptor (value in parenthesis) (κ receptor [2])
Oc1cccc(-n2cnnc2-c2cccc(-c3ccccc3)c2)c1 [DST3-2]	42	84	1000	140	84	10/1			
CN1CC[C@]23c4c5ccc(O)c4OC2C(=O)C2(Cc4ccccc4C2)C[C@@]3(O)C1C5 (some centres unmarked) [SIOM, spiroindanyloxymorphone]							8.77	7.48	< 6.00
Oc1ccc2c3c1O[C@H]1c4[nH]c5ccccc5c4C[C@@]4(O)[C@@H](C2)N(CC2CC2)CC[C@]314 [NTI, naltrindole]							10.70		7.18
